# According to article PMC11617094 (Molecular Biology of the Cell, 2024):
# T1: Alp7A (Bacillus subtilis, UniProt C7F6X5)
# T1 construct: untagged native Alp7A encoded by plasmid pLS20, codon-optimised gene in pET28a (NcoI/HindIII), expressed in E. coli C43, purified by a polymerization cycle and gel filtration; forms two-stranded filaments
# T1 sequence (C7F6X5 1-391): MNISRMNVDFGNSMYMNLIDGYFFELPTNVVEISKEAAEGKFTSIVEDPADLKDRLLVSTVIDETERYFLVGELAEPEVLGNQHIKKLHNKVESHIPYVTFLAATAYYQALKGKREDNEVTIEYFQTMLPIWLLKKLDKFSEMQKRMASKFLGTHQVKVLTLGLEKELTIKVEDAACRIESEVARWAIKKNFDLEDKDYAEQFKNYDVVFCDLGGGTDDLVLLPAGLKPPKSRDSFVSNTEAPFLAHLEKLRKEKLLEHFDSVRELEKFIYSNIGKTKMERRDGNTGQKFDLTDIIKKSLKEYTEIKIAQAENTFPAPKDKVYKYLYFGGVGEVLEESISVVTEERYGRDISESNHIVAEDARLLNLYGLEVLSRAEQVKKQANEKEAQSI
# What was measured:
# Alp7A [1] = target: T1, Alp7A; test: EnzChek phosphate release (ATPase on polymerization); type: biochemical; settings: 10 mM ATP/Mg, 25 mM Tris pH 7.5, 100 mM KCl, 1 mM MgCl2, 1 mM DTT; no Alp7R
# Alp7A [2] = target: T2, Alp7A (Bacillus subtilis, UniProt C7F6X5, E180A); test: right-angle light scattering of ATP-induced polymerization; phosphate release; settings: Mg-ATP 3 mM (polymerization) or 10 mM (phosphate release), 25 mM Tris pH 7.5, 100 mM KCl, 1 mM MgCl2, 1 mM DTT; nucleotide-binding pocket mutant
# T2 construct: untagged native Alp7A encoded by plasmid pLS20, codon-optimised gene in pET28a (NcoI/HindIII), expressed in E. coli C43, purified by a polymerization cycle and gel filtration; forms two-stranded filaments
# [3] = target: Alp7A (wild type, native, unlabelled) (Bacillus subtilis (plasmid pLS20)) (UniProt C7F6X5)
# [4] = target: the molecule itself; test: negative-stain electron microscopy; polymers formed with 3 mM ATP/Mg++, adsorbed to carbon-coated grids, 0.75% uranyl formate; buffer as for light scattering
molecule,measurement,setting,value
Nc1ncnc2c1ncn2[C@@H]1O[C@H](COP(=O)(O)OP(=O)(O)OP(=O)(O)O)[C@@H](O)[C@H]1O [ATP],EnzChek phosphate release (ATPase on polymerization),Alp7A [1],phosphate dissociates rapidly from wild-type Alp7A polymers
same,right-angle light scattering of ATP-induced polymerization; phosphate release,Alp7A [2],addition of Mg-ATP to purified Alp7A-E180A induces formation of stable polymers
"Alp7A (wild type, native, unlabelled) (from UniProt C7F6X5 1-391) (natural protein)","concentration threshold of the specific ATPase activity (steady-state phosphate release) of Alp7A, taken as the critical concentration for elongation (ccE)",[3],0.6 µM
"Alp7A-E180A (hydrolysis-dead mutant, unlabelled) (natural protein, Bacillus subtilis (plasmid pLS20), UniProt C7F6X5 1-391, looked up) MNISRMNVDFGNSMYMNLIDGYFFELPTNVVEISKEAAEGKFTSIVEDPADLKDRLLVSTVIDETERYFLVGELAEPEVLGNQHIKKLHNKVESHIPYVTFLAATAYYQALKGKREDNEVTIEYFQTMLPIWLLKKLDKFSEMQKRMASKFLGTHQVKVLTLGLEKELTIKVEDAACRIASEVARWAIKKNFDLEDKDYAEQFKNYDVVFCDLGGGTDDLVLLPAGLKPPKSRDSFVSNTEAPFLAHLEKLRKEKLLEHFDSVRELEKFIYSNIGKTKMERRDGNTGQKFDLTDIIKKSLKEYTEIKIAQAENTFPAPKDKVYKYLYFGGVGEVLEESISVVTEERYGRDISESNHIVAEDARLLNLYGLEVLSRAEQVKKQANEKEAQSI",binding result,[4],binds
